From patent US20070299114A1, “Biaryl Derivatives” (Shionogi & Co., Ltd., priority 2004, published 2007)
pIC50: −log10 of the molar value.

target: T1, dihydrooroate dehydrogenase (Homo sapiens, UniProt Q02127); experiment: dihydroorotate dehydrogenase inhibition, U-937 mitochondrial/microsomal fraction, DCIP absorbance at 620 nm; assay type: biochemical; settings: DHODH of human U-937 cell mitochondrial/microsomal fraction; 37° C., 120 minutes
T1 construct: ultracentrifugation at 4° C. and 120,000×g for 60 minutes afforded a mitochondrial/microsomal fraction; endogenous in cells; host or cells: U-937 (human histiocytic lymphoma cell line), mitochondrial/microsomal fraction
T1 sequence (Q02127 whole entry): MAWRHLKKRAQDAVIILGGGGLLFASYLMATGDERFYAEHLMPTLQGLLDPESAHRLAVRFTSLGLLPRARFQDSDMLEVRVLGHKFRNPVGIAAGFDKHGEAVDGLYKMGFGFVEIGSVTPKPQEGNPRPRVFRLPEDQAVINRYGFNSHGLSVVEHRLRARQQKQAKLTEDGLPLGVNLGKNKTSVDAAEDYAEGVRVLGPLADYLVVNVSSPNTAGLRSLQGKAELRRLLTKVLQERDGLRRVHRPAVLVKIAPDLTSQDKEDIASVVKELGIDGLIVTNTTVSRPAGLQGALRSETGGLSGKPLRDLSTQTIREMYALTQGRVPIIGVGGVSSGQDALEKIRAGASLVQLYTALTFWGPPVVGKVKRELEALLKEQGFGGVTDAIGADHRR
Description: Method of Testing dihydrooroate dehydrogenase Inhibition
Human U-937 cell (human histiocytic lymphoma cell line) was sonicated in a homogenizing buffer (20 mM Tris-HC1, pH 7.4, containing 2 mM EDTA and protease inhibitor cocktail), and this was centrifuged at 4° C. and 1,200×g for 15 minutes to remove cell debris. Further, ultracentrifugation at 4° C. and 120,000×g for 60 minutes afforded a mitochondrial/microsomal fraction. The resulting fraction was quantitated for a protein, and prepared to 10 mg/ml, which was freezing-stored in a −40° C. in a refrigerator until measurement. To 150 μl of the reaction solution (50 mM Tris-HC1, pH 7.4, containing 0.1% Triton X-100, 1 mM KCN, 100 μM coenzyme Q10, 200 μM DCIP), were added 10 μl of a dilution series of the compound and 0.2 mg of a mitochondrial/microsomal fraction, followed by pre-incubation at 37° C. for 30 minutes. Then, 20 μl of a 5 mM DHO solution (final concentration […]), which is a substrate, was added, this was incubated at 37° C. for 120 minutes, and an absorbance at a measurement wavelength of 620 nm was measured. A rate of suppression of a compound at each concentration relative to a change in an absorbance due to the enzyme reaction was obtained, and a concentration indicating 50% inhibition (IC50 value) was calculated to assess the inhibition activity of the compound.

SMILES	pIC50
COc1cc(-c2ccc(NC(C)C)cc2F)c(OC)cc1/C=C(\C)C(=O)NC1CC1 [Compound 24]	8.12
COc1cc(-c2ccc(NCc3ccco3)cc2F)c(OC)cc1/C=C(\C)C(=O)NC(C)C [Compound 27]	8.11
COc1cc(-c2ccc(NCc3ccco3)cc2F)c(OC)cc1/C=C(\C)C(=O)NC1CC1 [Compound 28]	8.14
COc1cc(-c2ccc(NCc3ccco3)cc2F)c(OC)cc1/C=C(/F)C(=O)NC1CC1 [Compound 41]	8.09
COc1cc(-c2ccc(NCc3ccco3)cc2F)c(OC)cc1/C=C(/F)C(=O)NC(C)C [Compound 42]	8.00
C/C(=C\c1cc(C)c(-c2ccc(NC(C)C)cc2F)cc1C)C(=O)NC1CC1 [Compound 154]	8.10
C/C(=C\c1cc(C)c(-c2ccc(NCc3ccco3)cc2F)cc1C)C(=O)NC(C)C [Compound 158]	8.15
CC/C(=C\c1cc(C)c(-c2ccc(NC(C)C)cc2F)cc1C)C(=O)NC1CC1 [Compound 165]	7.99
CC/C(=C\c1cc(C)c(-c2ccc(NC3CCCC3)cc2F)cc1C)C(=O)NC1CC1 [Compound 173]	8.15
Cc1cc(-c2cc(O)c3[nH]ccc3c2)c(C)cc1/C=C(\Cl)C(=O)NC(C)C [Compound 267]	8.14
Cc1cc(-c2ccc3[nH]ccc3c2)c(C)cc1/C=C(\Cl)C(=O)N[C@H](C)C(=O)O [Compound 299]	8.02
CC/C(=C\c1cc(C)c(-c2ccc(NC3CCCC3)cc2)cc1C)C(=O)NC1CCCC1 [Compound 313]	7.95
CC/C(=C\c1cc(C)c(-c2ccc(NC3CCCC3)cc2F)cc1C)C(=O)NC1CCCCC1 [Compound 325]	7.99
C/C(=C\c1cc(C)c(-c2ccc(NC(C)C)cc2F)cc1C)C(=O)N[C@H](C)C(=O)O [Compound 349]	8.05
C/C(=C\c1cc(C)c(-c2ccc3[nH]c(C)cc3c2)cc1C)C(=O)NC(C)C [Compound 383]	7.87
C/C(=C\c1cc(C)c(-c2ccc(NC3CCCC3)cc2)cc1C)C(=O)NC(C)(C)C [Compound 414]	8.05
C/C(=C\c1c(C)c(C)c(-c2ccc3[nH]ccc3c2)c(C)c1C)C(=O)NC1CC1 [Compound 417]	8.17
C/C(=C\c1c(C)c(C)c(-c2ccc(NC(C)C)cc2F)c(C)c1C)C(=O)NS(=O)(=O)c1ccccc1 [Compound 422]	8.19
C/C(=C\c1c(C)c(C)c(-c2ccc3[nH]ccc3c2)c(C)c1C)C(=O)NC(C)C [Compound 427]	7.88
C/C(=C\c1c(C)c(C)c(-c2ccc(NC3CCCC3)cc2)c(C)c1C)C(=O)NC1CCCC1 [Compound 463]	8.04
C/C(=C\c1c(C)c(F)c(-c2ccc(NC(C)C)cc2)c(C)c1F)C(=O)NC1CC1 [Compound 488]	8.00
Cc1c(F)c(-c2ccc(NC3CCCC3)cc2)c(C)c(F)c1/C=C(\F)C(=O)NC(C)C [Compound 518]	8.14
CC/C(=C\c1c(C)c(OC)c(-c2ccc(NC(C)C)cc2)c(C)c1OC)C(=O)NC(C)C [Compound 530]	8.01
COc1c(C)c(-c2ccc(NC3CCCC3)cc2)c(OC)c(C)c1/C=C(\C)C(=O)NC1CCCC1 [Compound 536]	8.08
COc1c(C)c(-c2ccc(NCC=C(C)C)cc2)c(OC)c(C)c1/C=C(\C)C(=O)NC(C)C [Compound 574]	8.03
COc1c(C)c(-c2ccc(NCC=C(C)C)cc2)c(OC)c(C)c1/C=C(\C)C(=O)NC1CCCC1 [Compound 575]	8.02

Continued, values first:

pIC50	SMILES
8.44	CC(C)=CCNc1ccc(-c2cc(C)c(/C=C(\C)C(=O)NC(C)C)cc2C)c(F)c1 [Compound 116]
8.24	Cc1cc(-c2cc(O)c3[nH]ccc3c2)c(C)cc1/C=C(\Cl)C(=O)NC1CC1 [Compound 268]
8.28	C/C(=C\c1cc(C)c(-c2cccc3[nH]ccc23)cc1C)C(=O)NC1CC1 [Compound 281]
8.56	CO/C(=C\c1cc(C)c(-c2ccc(NC(C)C)cc2F)cc1C)C(=O)NC(C)C [Compound 292]
8.39	CC/C(=C\c1cc(C)c(-c2ccc(NCc3ccco3)cc2)cc1C)C(=O)NC1CCCC1 [Compound 309]
8.19	CC/C(=C\c1cc(C)c(-c2ccc(NC(C)C)cc2F)cc1C)C(=O)NC1CCCC1 [Compound 321]
8.33	CC/C(=C\c1cc(C)c(-c2ccc(NC3CCCC3)cc2F)cc1C)C(=O)NC1CCCC1 [Compound 324]
8.61	C/C(=C\c1cc(C)c(-c2ccc(NCc3ccco3)cc2F)cc1C)C(=O)NC1CCCC1 [Compound 334]
8.21	COC(=O)[C@@H](C)NC(=O)/C(C)=C/c1cc(C)c(-c2ccc(NC(C)C)cc2F)cc1C [Compound 348]
8.21	C/C(=C\c1c(C)c(C)c(-c2ccc(NC(C)C)cc2)c(C)c1C)C(=O)NC(C)C [Compound 415]
8.58	C/C(=C\c1c(C)c(C)c(-c2ccc(NC3CCCC3)cc2)c(C)c1C)C(=O)NC(C)C [Compound 416]
8.55	C/C(=C\c1c(C)c(C)c(-c2ccc(NCc3ccco3)cc2)c(C)c1C)C(=O)NC(C)C [Compound 418]
8.59	C/C(=C\c1c(C)c(C)c(-c2ccc(NC(C)C)cc2)c(C)c1C)C(=O)NC1CC1 [Compound 424]
9.04	C/C(=C\c1c(C)c(C)c(-c2ccc(NCc3ccco3)cc2)c(C)c1C)C(=O)NC1CC1 [Compound 425]
9.00	C/C(=C\c1c(C)c(C)c(-c2ccc(NC3CCCC3)cc2)c(C)c1C)C(=O)NC1CC1 [Compound 426]
8.62	C/C(=C\c1c(C)c(C)c(-c2ccc(NC(C)C)cc2)c(C)c1C)C(=O)NC1CCCC1 [Compound 434]
8.48	COc1c(C)c(-c2ccc(NC(C)C)cc2)c(OC)c(C)c1/C=C(\C)C(=O)NC1CCCC1 [Compound 528]

test system: anti-OVA IgE antibody; experiment: suppression of IgE antibody production to anti-ovalbumin (OVA) in immunized mice, PCA titer; assay type: in vivo; settings: dose 10 mg/kg orally for consecutive 10 days; anti-OVA IgE antibody value (PCA titer, Log2 of maximum serum dilution rate) in BALB/c mice
Description: Effect of Suppression of IgE Antibody Production to Anti-Ovalbumin (OVA)
BALB/c mice (female, 8 to 10 week old) purchased from Japan Charles River (Kanagawa) and Wistar rats (female, 8 to 10 week old) purchased from Japan SLC (Sizuoka) were used.
BALB/c mice were immunized by intraperitoneally injecting 0.2 ml of a solution obtained by suspending 2 μg of ovalbumin (OVA) and an aluminum hydroxide gel (1 mg) in a brine. After ten days, blood was taken from a heart, the serum was separated, and an IgE antibody value was measured.
[…] Administration was performed from immunization date to the day before blood collection for consecutive 10 days.
4) Measurement of Anti-OVA IgE Antibody Value (PCA Titer)
The resulting mouse serum was prepared into a 2-fold dilution series with a brine, and each 50 μl of this was subcutaneously injected into a back of a pre-shaved Wistar rat. After 24 hours, 0.5 ml of a brine containing 1 mg of OVA and 5 mg of an Evans Blue dye was intravenously injected to induce a passive skin anaphylactic reaction (PCA).

SMILES	PCA
C/C(=C\c1cc(C)c(-c2ccc3[nH]ccc3c2)cc1C)C(=O)NC(C)C [Compound 76]	4.3
C/C(=C\c1cc(C)c(-c2ccc(NC(C)C)cc2)cc1C)C(=O)NC1CCCCC1 [Compound 80]	5.3
CC/C(=C\c1cc(C)c(-c2ccc(NC(C)C)cc2)cc1C)C(=O)NC1CCCC1 [Compound 142]	0.0

same assay, conditions: dose 40 mg/kg orally for consecutive 10 days; anti-OVA IgE antibody value (PCA titer, Log2 of maximum serum dilution rate) in BALB/c mice

SMILES	PCA
COc1cc(-c2ccc(NC(C)C)cc2F)c(OC)cc1/C(C)=C/C(=O)NC(C)C [Compound 40]	1.3
Cc1cc(-c2ccc(NC3CCCC3)cc2)c(C)cc1/C=C(\F)C(=O)NCCC(=O)O [Compound 408]	0<
C/C(=C\c1c(C)c(C)c(-c2ccc(NC(C)C)cc2F)c(C)c1C)C(=O)N[C@H](C)C(=O)O [Compound 420]	0<

test system: Human lymphocyte; experiment: suppression of IgE antibody production in human lymphocyte stimulated with anti-human CD40 antibody and IL-4; assay type: cell-based; settings: 216 h; IgE antibody production by human lymphocyte, anti-human CD40 antibody + IL-4, cultured for 9 days, ELISA
Description: Effect of Suppressing Antibody Production Using Human Lymphocyte
1) Human Peripheral Blood
Human peripheral blood was collected with a plastic syringe containing heparin (final concentration 1.5%) from a vein of an adult healthy person, and subjected to collection of lymphocyte immediately after blood collection.
To the RPMI medium (Sigma) were added 10% of fetal bovine serum, (HyClone Lab.) which had been immobilized at 56° C. for 30 minutes, penicillin (100 units/ml) and streptomycin (100 μg/ml) (Invitrogen), which was used.
The present compound was dissolved in dimethyl sulfoxide (Nakalai Tesque) to 2 mg/ml and, thereafter, the solution was diluted with a medium to a final concentration of 0.01 pg/ml to 10 μg/ml.
Human peripheral blood was mixed with an equal amount of PBS-10 mM EDTA, 10 ml of this was overlaid on a tube containing 3 ml of Ficoll-Paque Plus (Pharmacia Biotech), followed by centrifugation at room temperature and 300×g for 30 minutes to obtain a lymphocyte layer. The collected cell suspension was centrifugation-washed with a sterilized Hanks's balanced salt solution (Invitrogen), passed through a nylon mesh, and centrifugation-washed with a medium, which was used in an experiment as human lymphocyte.
5) Inducement of IgE Antibody Production Due to B cell Stimulation
Human lymphocyte was seeded on a 96-well culturing plate (Sumitomo Bakelite) to 2×10^5 cells per well, and the compound, an anti-human CD40 antibody (Pharmingen, 2 μg/ml), and human recombinant interleukin-4 (IL-4) (PEPROTECH, 0.1 μg/ml) were added, followed by culturing at 37° C. under the presence of 5% CO2 (0.2 ml/well). After cultured for 9 days, an amount of an antibody produced in the supernatant was quantitated by a specific ELISA method.
6) Quantitation of IgE Antibody
For quantitating IgE, a commercially available kit, MESACUP IgE Test (Medical & Biological Laboratories Co., Ltd.) was used. An experimental method was according to the manual, an experiment was performed duplicately, and an average was obtained.

IC50 [ng/mL]	SMILES
3.7	COc1cc(-c2ccc(NC(C)C)cc2F)c(OC)cc1/C(C)=C/C(=O)NC(C)C [Compound 40]
1.6	C/C(=C\c1cc(C)c(-c2ccc3[nH]ccc3c2)cc1C)C(=O)NC(C)C [Compound 76]
4.6	C/C(=C\c1cc(C)c(-c2ccc(NC(C)C)cc2)cc1C)C(=O)NC1CCCCC1 [Compound 80]
8.4	CC/C(=C\c1cc(C)c(-c2ccc(NC(C)C)cc2)cc1C)C(=O)NC1CCCC1 [Compound 142]
8	Cc1cc(-c2ccc(NC3CCCC3)cc2)c(C)cc1/C=C(\F)C(=O)NCCC(=O)O [Compound 408]
39	C/C(=C\c1c(C)c(C)c(-c2ccc(NC(C)C)cc2F)c(C)c1C)C(=O)N[C@H](C)C(=O)O [Compound 420]
